Measurements published in patent publication US11224565B2, “N-acyldipeptide derivatives and their uses” (NeoStrata Company, Inc., priority 2011, dated 2022).
Peptide text beside a SMILES is read from it.

Columns and labels:
[1] = tested on: skin cut with an open wound; assay: Topical treatment of skin wound; assay type: in vivo, human; conditions: 0.5% (w/w) cream twice daily on 2 cm open wound
Excerpt: The subject topically applied twice daily 0.5% (w/w) N—Ac-L-Val-L-Ala-NH2 cream as formulated in Example 2 on the wound. […] At the end of 5 days, the wound had healed nearly completely, and treated skin appeared normal without any signs of scar formation. The wound had 95-100% improvement as judged by clinical evaluation.

[2] = tested on: osteoarthritis of both knees; assay: Intra-articular injections in knee osteoarthritis; assay type: in vivo, human
Procedure: Bioactive dipeptide derivative of the present invention as potential treatment of knee osteoarthritis by intra-articular injections.
A subject had severe osteoarthritis of both knees for four and half years. Prior therapy had included intra-articular injections of corticosteroids and hyaluronic acid as well as celecoxib (Celebrex) orally (200 mg) twice daily. Such therapy had provided only mild transitory relief of knee pain and edema, and edema of lower legs.
Intra-articular injections of 0.2% (w/v) N—Ac-L-Val-L-Ala-NH2 in water, 1 ml (2 mg) as prepared in Example 22 were administered to each knee. The pains in both knees disappeared 10-15 minutes after the injections, and the relief of pains lasted for 24 hours. Edema and inflammation of the knees and lower legs had diminished for approximately the same 24 hour period. Repeat injections of the same composition were administered once a week for five weeks to provide continued relief of pain, edema and inflammation.
In another trial, intra-articular injections of 0.2% (w/v) N—Ac-L-Val-L-Ala-NH2 with 1% (w/v) methyl cellulose in water, 0.4 ml (0.8 mg) as prepared in Example 22 were also administered to each knee at different times. The pains in both knees disappeared 10-15 minutes after the injections, and the relief of pains lasted for 24 hours. Edema and inflammation of the knees and lower legs had diminished for approximately the same 24 hour period.
In yet another embodiment, the volunteer subject injected intra-articularly into a knee joint a test composition containing a bioactive dipeptide derivative of the present invention to improve and reduce arthritic inflammation and pain of the joint.

[3] = tested on: interleukin-6 (IL-6) in THP-1 leukemia cells; assay: In vitro screen for anti-inflammatory effects: angiocidin-induced IL-6 in THP-1 cells (ELISA); assay type: cell-based, human; conditions: 100 μg/ml for 24 hours, then angiocidin 10 μg/ml for 24 hours
Procedure: A typical in vitro screen for anti-inflammatory effects was carried out as follows.
THP-1 leukemia cells (monocytic leukemic human cell line) were cultured and either untreated or treated with a bioactive dipeptide derivative (100 μg/ml) of the present invention for 24 hours. The untreated or treated leukemia cells were then treated with angiocidin (10 μg/ml) for 24 hours to induce interleukin-6 (IL-6) which was an indicator of the inflammation. The induced IL-6 was measured quantitatively by ELISA (enzyme-linked immunosorbent assay). […] Therefore, the bioactive dipeptide derivatives of the present invention, such as N—Ac-L-Val-L-Ala-NH2, have the potential use as nonsteroidal anti-inflammatory substances.

[4] = tested on: near-sightedness (myopia); assay: Topical application around the eyes, eye vision (myopia); assay type: in vivo, human; conditions: person
Excerpt: Typical examples of improving eye vision are described as follows.
Each time their vision in both eyes got worse, and they required changes in contact lenses in past years. This time, 6 weeks before their checkup, the subject topically applied twice daily 0.5% (w/v) N—Ac-L-Tyr-L-Tyr-NH2 in WEP442, pH 6.7 (Example 5) on the skin around and outside of eye areas and periorbital regions for 6 weeks.
Each time their vision in both eyes worsened, and they required changes in the prescription for their contact lenses in the past years. This time, one month before their checkup, the subject topically applied once daily 0.5% (w/v) N—Ac-L-Tyr-L-Tyr-NH2 in WEP442, pH 6.7 (Example 5) on the skin around and outside of eye areas and periorbital regions for 4 weeks.

sweating of underarm = assay: Topical application to underarm, perspiration; assay type: in vivo, human; conditions: 0.5% (w/v) in WEP442 pH 6.7 after shower
Excerpt: A subject, routinely took a shower every morning, then topically applied a conventional antiperspirant product on the underarm skin to prevent perspiration. To test the efficacy of the N-acyldipeptide derivative of the present invention, the subject after the shower, topically applied 0.5% (w/v) N—Ac-L-Tyr-L-Tyr-NH2 in WEP442, pH 6.7 (Example 5) on the left underarm and a control vehicle WEP442 on the right underarm. After two hours, there was profuse sweating in the right underarm as evidenced by the wet shirt in the armpit area. In contrast, there was no sweating in the left underarm as shown by the dry shirt in the armpit area. The left underarm was dry for the next 6-8 hours.

varicose veins = assay: Topical treatment of varicose veins; assay type: in vivo, human; conditions: 0.5% (w/v) in WEP442 topically twice daily, right lower leg, end of four weeks
Excerpt: A subject had multiple varicose veins in their right lower leg for many years resistant to any kind of topical treatments including high potency alpha-hydroxyacids. The lesions of varicose veins covered an area of skin measuring 5 cm×10 cm and appeared more prominent with advancing age. The subject topically applied twice daily 0.5% (w/v) N—Ac-L-Tyr-L-Tyr-NH2 in WEP442 solution as prepared in Example 5. […] It is believed that continued topical application will eradicate the varicose veins.

muscle strength = assay: Pushup performance after topical application to upper chest; assay type: in vivo, human; conditions: 0.5% (w/v) in WEP442 pH 6.9 on upper chest about 30 minutes before exercise; routinely about 100
Procedure: A subject, performed pushups routinely with a maximal number of about 100 in one hour. The subject topically applied 0.5% (w/v) N—Ac-L-Tyr-L-Tyr-NH2 in WEP442, pH 6.9 solution as prepared in Example 5 to ease the tight muscles on the upper chest about 30 minutes before the exercise. The subject was surprised to find that after the topical application they could now perform pushups with a maximal number of about 200 in one hour without feeling tired. The subject repeated the performance next day with the same enhanced result. To make sure that the enhanced effect on the muscles was not due to the vehicle solution, in the following day the subject topically applied WEP442 solution to the same upper chest about 30 minutes before the exercise. This time the subject could not perform the same number of pushups as before.

[5] = 0.2% (w/v) in water, 1 ml (2 mg) intra-articular per knee
[6] = 0.2% (w/v) with 1% (w/v) methyl cellulose in water, 0.4 ml (0.8 mg) intra-articular per knee

Row | Structure (SMILES) | improvement of wound as judged by clinical evaluation ([1]; end of 5 days) | wound pain after topical application ([1]; left leg) | duration of relief of pains [2, 5] [h] | period of diminished edema and inflammation of knees and lower legs [2, 5] [h] | time after injection until pains in both knees disappeared [2, 5] [min] | duration of relief of pains [2, 6] [h] | period of diminished edema and inflammation of knees and lower legs [2, 6] [h] | time after injection until pains in both knees disappeared [2, 6] [min] | inhibition of the production of IL-6 [3] | vision in both eyes at yearly checkup ([4]; 0.5% (w/v) in WEP442 pH 6.7 once daily on skin around eyes for 4 weeks) | vision in both eyes at yearly checkup ([4]; 0.5% (w/v) in WEP442 pH 6.7 twice daily on skin around eyes for 6 weeks) | time the treated underarm stayed dry (sweating of underarm) [h] | sweating of treated left underarm (sweating of underarm; after two hours, vehicle underarm profuse sweating) | appearance of varicose vein lesions (varicose veins) | maximal number of pushups in one hour (muscle strength)
1 | CC(=O)N[C@H](C(=O)N[C@@H](C)C(N)=O)C(C)C [N-Ac-L-Val-L-Ala-NH2] (Ac-Val-Ala-NH2) | 95-100% | stopped within a few minutes | 24 | ~24 | 10 to 15 | 24 | ~24 | 10 to 15 | approximately 70% |  |  |  |  |  | 
2 | CC(=O)N[C@@H](Cc1ccc(O)cc1)C(=O)N[C@@H](Cc1ccc(O)cc1)C(N)=O [N-Ac-L-Tyr-L-Tyr-NH2] (Ac-Tyr-Tyr-NH2) |  |  |  |  |  |  |  |  |  | did not worsen | did not worsen | 6 to 8 | no sweating | appeared less prominent | about 200
